Reference: patent US4148795A, “Dithiocarbamate ester bactericides and fungicides” (American Cyanamid Company, priority 1976, dated 1979)
Several values for one entry are separate records, joined by “and”; a condition that tells them apart may be missing. Identical values can stand only once. Like-named read-outs stand apart in the source and are kept apart here.

Legend:
Aspergillus niger [1] = assay: Spore germination inhibition; type: cell-based; conditions: 24 hours
Source text: (§1) The test procedure involves the preparation of a 100, 10 or 1 ppm. suspension of test compound in water. The solutions are placed in one dram "opticlear" vials and separately inoculated with one drop of a spore suspension prepared from seven-day cultures of Aspergillus niger and 14-day old cultures of Monilinia fructicola and Stemphylium sarcinaeforme,all grown on potato-dextrose agar. The vials containing the separately inoculated solutions of test compounds are then capped and placed on a rotating tumbler for 24 hours to assure contact of the organism with the test compound. After 24 hours, the vials are removed and examined for inhibition of […].

[2] = tested on: Stemphylium sarcinaeforme; assay: Spore germination inhibition; type: cell-based; conditions: Stemphylium sarciniforme; for inhibition at 100 ppm: 24 h, read-out: % Inhibition of Spore Germination; for inhibition at 1 ppm / inhibition at 10 ppm: 24 hours
Source text: as §1

Monilinia fructicola [3] = assay: Spore germination inhibition; type: cell-based; conditions: for inhibition at 1 ppm / inhibition at 10 ppm: 24 hours; for inhibition at 100 ppm: 24 h, read-out: % Inhibition of Spore Germination
Source text: as §1

Aerobacter aerogenes = type: cell-based; conditions: 100 ppm; subcultures 72 hours at 37° C; note: key: 0: No Effect; 9: Kill of Bacteria; 5: Stasis, but not Kill of all Bacteria
[4] = tested on: Collectotrichum lagenarium; assay: Agar dilution plate; type: cell-based; conditions: Cl; 100 ppm, 72 hours at 23° C
Description: (§2) Test compounds were incorporated in a Sabouraud's dextrose agar in an amount sufficient to provide the active ingredient in a concentration of about 100 ppm. A twenty-ml. sample of the agar mixture is placed in a petri dish and permitted to solidify. An agar sample is inoculated with the test organism set forth below and then covered and incubated for a period of about 72 hours at 23° C. After incubation, growth observations are made. The test results are recorded and the test is repeated twice for the purpose of comparison.
(§3) The data obtained with a variety of test organisms is shown in the table below, and ratings are shown as 0 or 5. O indicates no control, 5 indicates 100% effectiveness of the test compound against the specified organism.
Cl= Collectotrichum lagenarium

Xanthomonas vesicatoria = type: cell-based; conditions: 100 ppm; subcultures 72 hours at 37° C; note: key: 0: No Effect; 9: Kill of Bacteria; 5: Stasis, but not Kill of all Bacteria
[5] = tested on: Stemphylium sarcinaeforme; assay: Agar dilution plate; type: cell-based; conditions: Ss; 100 ppm, 72 hours at 23° C
Description: as §2, §3
Ss= Stemphylium sarcinaeforme

Aspergillus niger [6] = assay: Agar dilution plate; type: cell-based; conditions: An; 100 ppm, 72 hours at 23° C
Description: as §2, §3

Pythium de Baryanum = assay: Agar dilution plate; type: cell-based; conditions: Pd; 100 ppm, 72 hours at 23° C
Description: as §2, §3

Rhizoctonia solani = assay: Agar dilution plate; type: cell-based; conditions: Rs; 100 ppm, 72 hours at 23° C
Description: as §2, §3

Fusarium lycopersici = assay: Agar dilution plate; type: cell-based; conditions: Fl; 100 ppm, 72 hours at 23° C
Description: as §2, §3

Monilinia fructicola [7] = assay: Agar dilution plate; type: cell-based; conditions: Mf; 100 ppm, 72 hours at 23° C
Description: as §2, §3

Verticillium albo-atrum = assay: Agar dilution plate; type: cell-based; conditions: Va; 100 ppm, 72 hours at 23° C
Description: as §2, §3
Va= Verticillium albo-atrum

Staphylococcus aureus = type: cell-based; conditions: 100 ppm; subcultures 72 hours at 37° C; note: key: 0: No Effect; 9: Kill of Bacteria; 5: Stasis, but not Kill of all Bacteria
Pseudomonas solaracaerum = type: cell-based
Piricularia oryzae = type: in vivo; set-up: scale not given here; conditions: Rice Blast, five days
Phytophthora infestans = type: in vivo; set-up: scale not given here; conditions: Tomato Late Blight, five days
Venturia inaequalis = conditions: in vivo; note: key: 5: clean, no disease; 4: trace of disease; 3: slight disease; 2: moderate disease; 1: severe disease; 0: like controls

Row | SMILES | inhibition at 1 ppm (Aspergillus niger [1]) [%] | inhibition at 10 ppm (Aspergillus niger [1]) [%] | inhibition at 100 ppm (Aspergillus niger [1]) [%] | inhibition at 100 ppm [2] [%] | inhibition at 1 ppm [2] [%] | inhibition at 10 ppm [2] [%] | inhibition at 1 ppm (Monilinia fructicola [3]) [%] | inhibition at 10 ppm (Monilinia fructicola [3]) [%] | Antibacterial Activity rating (Aerobacter aerogenes) | Agar Dilution Plate rating [4] | Antibacterial Activity rating (Xanthomonas vesicatoria) | Agar Dilution Plate rating [5] | Agar Dilution Plate rating (Aspergillus niger [6]) | Agar Dilution Plate rating (Pythium de Baryanum) | Agar Dilution Plate rating (Rhizoctonia solani) | Agar Dilution Plate rating (Fusarium lycopersici) | Agar Dilution Plate rating (Monilinia fructicola [7]) | Agar Dilution Plate rating (Verticillium albo-atrum) | Antibacterial Activity rating (Staphylococcus aureus) | Agar Dilution Plate rating (Pseudomonas solaracaerum; 100 ppm, 72 hours at 23° C) | other results
1 | CCC(CSC(=S)N(C)C)[N+](=O)[O-] (stereo not shown) [Example 6, 2-Nitrobutyl Dimethyldithiocarbamate] | 0 | 100 | 100 | 100 | 100 | 100 | 100 | 100 | 9 | 5 (100% effectiveness of the test compound against the specified organism) | 9 | 5 (100% effectiveness of the test compound against the specified organism) | 5 (100% effectiveness of the test compound against the specified organism) | 5 (100% effectiveness of the test compound against the specified organism) | 5 (100% effectiveness of the test compound against the specified organism) | 5 (100% effectiveness of the test compound against the specified organism) | 5 (100% effectiveness of the test compound against the specified organism) | 5 (100% effectiveness of the test compound against the specified organism) | 9 | 0 | inhibition at 100 ppm (Monilinia fructicola [3]): 100%
2 | CC(=O)C(CSC(=S)N(C)C)=C(C)O [Example 9, 2-(1-Hydroxyethylidene)-3-oxobutyl Dimethyldithiocarbamate] | 0 | 0 | 100 | 100 | 0 | 0 | 0 | 0 | 0 | 5 (100% effectiveness of the test compound against the specified organism) | 0 | 0 | 0 | 0 | 0 | 0 | 0 | 0 | 5 | 0 | inhibition at 100 ppm (Monilinia fructicola [3]): 100%; disease control index (Piricularia oryzae; 150 ppm): 0; disease control index (Piricularia oryzae; 300 ppm): 2; disease control index (Piricularia oryzae; 600 ppm): 3; disease control index (Piricularia oryzae; 1200 ppm): 4
3 | CC(=O)C(CSC(=S)N(C)C)SC(=S)N(C)C (stereo not shown) [Example 10, Acetylethylene Dimethyldithiocarbamate] | 100 | 100 | 100 | 100 | 100 | 100 | 100 | 100 | 9 | 5 (100% effectiveness of the test compound against the specified organism) | 5 | 5 (100% effectiveness of the test compound against the specified organism) | 5 (100% effectiveness of the test compound against the specified organism) | 5 (100% effectiveness of the test compound against the specified organism) | 5 (100% effectiveness of the test compound against the specified organism) | 5 (100% effectiveness of the test compound against the specified organism) | 5 (100% effectiveness of the test compound against the specified organism) | 5 (100% effectiveness of the test compound against the specified organism) | 9 | – | disease control index (Phytophthora infestans; at 100 ppm): 4; disease control index (Phytophthora infestans; at 500 ppm): 5; inhibition at 100 ppm (Monilinia fructicola [3]): 100%; disease control index (Piricularia oryzae; at 75 ppm): 4; disease control index (Piricularia oryzae; at 500 ppm): 5; Agar Dilution Plate rating (Pseudomonas solaracaerum): 0
4 | CN(C)C(=S)SCC(SC(=S)N(C)C)C(=O)c1ccccc1 (stereo not shown) [Example 11] | – | – | – | – | – | – | – | – | 0 | 5 (100% effectiveness of the test compound against the specified organism) | 0 | 0 | 0 | 0 | 0 | 0 | 5 (100% effectiveness of the test compound against the specified organism) | 0 | 5 | 0 | disease control index (Phytophthora infestans; at 100 ppm): 3; disease control index (Phytophthora infestans; at 500 ppm): 4; disease control index (Venturia inaequalis): 5; disease control index (Piricularia oryzae; at 75 ppm): 3; disease control index (Piricularia oryzae; at 500 ppm): 4
5 | CN(C)C(=S)SC(C[N+](=O)[O-])c1ccc(Cl)cc1Cl (stereo not drawn) [Example 17, 2,4-Dichloro-α-(nitromethyl)benzyl Dimethyldithiocarbamate] | – | – | – | – | – | – | – | – | 0 | 5 (100% effectiveness of the test compound against the specified organism) | 0 | 0 | 0 | 0 | 0 | 0 | 0 | 5 (100% effectiveness of the test compound against the specified organism) | 5 | 0 | disease control index (Phytophthora infestans; 150 ppm): 0; disease control index (Phytophthora infestans; 300 ppm): 4; disease control index (Phytophthora infestans; 600 ppm): 5; disease control index (Phytophthora infestans; 1200 ppm): 5; disease control index (Venturia inaequalis): 5 and 0; disease control index (Piricularia oryzae; 150 ppm): 3; disease control index (Piricularia oryzae; 300 ppm): 5; disease control index (Piricularia oryzae; 600 ppm): 5; disease control index (Piricularia oryzae; 1200 ppm): 5
6 | CC(C)c1ccc(C(C[N+](=O)[O-])SC(=S)N(C)C)cc1 (stereo not drawn) [Example 26, p-Isopropyl-α-(nitromethyl)benzyl Dimethyldithiocarbamate] | – | – | – | – | – | – | – | – | 0 | 5 (100% effectiveness of the test compound against the specified organism) | 0 | 5 (100% effectiveness of the test compound against the specified organism) | 0 | 5 (100% effectiveness of the test compound against the specified organism) | 5 (100% effectiveness of the test compound against the specified organism) | 0 | 5 (100% effectiveness of the test compound against the specified organism) | 5 (100% effectiveness of the test compound against the specified organism) | 5 | 0 | disease control index (Phytophthora infestans; 150 ppm): 3; disease control index (Phytophthora infestans; 300 ppm): 4; disease control index (Phytophthora infestans; 600 ppm): 4; disease control index (Phytophthora infestans; 1200 ppm): 5; disease control index (Venturia inaequalis): 5 and 0; disease control index (Piricularia oryzae; 150 ppm): 4; disease control index (Piricularia oryzae; 300 ppm): 4; disease control index (Piricularia oryzae; 600 ppm): 5; disease control index (Piricularia oryzae; 1200 ppm): 5
